Counter-ions that a name gives are not always drawn.
biological target: human αvβ3 receptor (Homo sapiens, UniProt P05106+P06756); test: Kistrin/Vitronectin Receptor (αvβ3) ELISA test; type: binding; conditions: Kistrin-coated plates, co-incubated 3 hours at ambient temperature, 4B12-HRP antibody, OD 450 nm, read-out: K/VnR IC50
Description: Kistrin/Vitronectin Receptor (αvβ3) ELISA Test
96-well MaxiSorp planes are coated overnight at […] with 100 μl of Kistrin at 1 μg/ml (dilution in a coating buffer: carbonate 0.05 M/NaOH pH 9.6). The next day, the wells are emptied and the ligands (kistrin) are then fixed (fixing buffers: PBS containing 0.5% BSA (pH=7.4)) for 1 hour at ambient temperature with gentle agitation at 125 rpm. The wells are washed six times (washing buffer: PBS containing 0.05% of Tween 20 (pH 7.7) then the following are added per well and in this order: • 40 μl of incubation buffer • 10 μl of the dilution of the product to be tested (the products are diluted in a 50:50 mixture DMSO/Water) • 50 μl of human αvβ3 receptor (cf Pytella et al. Methods Enzymol. (1987) 144 (Dilution in incubation buffer, to be adapted according to the receptor batch and according to the ligand). The ligand, the αvβ3 receptor and the products to be studied are co-incubated for 3 hours at ambient temperature with gentle agitation at 125 rpm.
The wells are again washed six times, then incubated for 2 hours at ambient temperature with gentle agitation at 125 rpm, in the presence of 100 μl of anti-receptor antibody conjugated to a peroxidase (The 4B12-HRP antibody is diluted in an incubation buffer (50 mM TRIS pH 7.4; 0.5% BSA; 0.05% Tween 20; 1 mM MnCl2; 50 μM CaCl2; 50 μM MgCl2; 100 mM NaCl) The dilution is adapted according to the receptor batch.
The wells are then washed six times before measuring the ligand-receptor bond carried out using a peroxidase developer kit (TBM Microwell Peroxidase Substrate System Kirkegaard; Cat. Ref. 50-76-00).
This kit contains a bottle A of substrate (3,3′,5,5′-tetramethylebenzidine at 0.4 g/l) and a bottle B (H2O2 at 0.02% in a Citrate/Citric acid buffer). Extemporaneously, a volume of A is mixed with a volume of B, then the reaction mixture is distributed at a rate of 100 μl/well.
The enzymatic reaction develops between 6 and 10 minutes for Kistrin/αvβ3 then its evolution is stopped by the addition of 100 μl of 1M phosphoric acid. The optical density is determined at 450 nm.
Expression of the Results
The following curve is plotted: the bond percentage as a function of the logarithm of each concentration of the tested product.
For each product, the IC50 is determined according to the following formula: IC50=(B0+Bmin)/2 • B0=Maximum bond in the absence of any product • Bmin =Minimum bond in the presence of the highest concentration of the product.

human αvβ3 receptor, sequence (P06756 31-889 limits assumed): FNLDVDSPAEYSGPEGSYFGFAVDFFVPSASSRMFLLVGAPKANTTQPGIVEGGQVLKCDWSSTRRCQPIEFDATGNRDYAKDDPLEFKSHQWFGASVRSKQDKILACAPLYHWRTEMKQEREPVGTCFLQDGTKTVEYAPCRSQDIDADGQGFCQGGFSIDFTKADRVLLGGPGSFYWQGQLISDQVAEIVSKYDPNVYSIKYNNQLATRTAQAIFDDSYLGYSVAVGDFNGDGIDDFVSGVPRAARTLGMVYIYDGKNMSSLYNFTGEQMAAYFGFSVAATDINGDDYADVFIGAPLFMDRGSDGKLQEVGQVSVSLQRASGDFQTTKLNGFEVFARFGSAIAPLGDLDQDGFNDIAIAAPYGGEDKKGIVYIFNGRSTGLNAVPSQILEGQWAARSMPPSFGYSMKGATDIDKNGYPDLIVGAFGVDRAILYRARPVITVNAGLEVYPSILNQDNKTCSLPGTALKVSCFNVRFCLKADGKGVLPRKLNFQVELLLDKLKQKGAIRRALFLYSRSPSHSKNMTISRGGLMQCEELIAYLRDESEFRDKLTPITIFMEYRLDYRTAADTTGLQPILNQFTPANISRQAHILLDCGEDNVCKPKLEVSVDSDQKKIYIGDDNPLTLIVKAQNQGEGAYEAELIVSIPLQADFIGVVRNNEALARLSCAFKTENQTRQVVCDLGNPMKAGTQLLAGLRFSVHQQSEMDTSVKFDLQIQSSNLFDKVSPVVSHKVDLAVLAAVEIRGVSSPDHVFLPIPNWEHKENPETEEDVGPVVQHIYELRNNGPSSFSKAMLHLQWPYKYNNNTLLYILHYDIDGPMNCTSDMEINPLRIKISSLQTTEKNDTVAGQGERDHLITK
human αvβ3 receptor, sequence (P06756 891-1048 limits assumed): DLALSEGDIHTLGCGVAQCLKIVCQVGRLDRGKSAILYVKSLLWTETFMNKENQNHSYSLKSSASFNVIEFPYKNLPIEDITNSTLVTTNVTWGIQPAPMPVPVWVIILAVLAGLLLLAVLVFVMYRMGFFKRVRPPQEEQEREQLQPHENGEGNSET
human αvβ3 receptor, sequence (P05106 27-788): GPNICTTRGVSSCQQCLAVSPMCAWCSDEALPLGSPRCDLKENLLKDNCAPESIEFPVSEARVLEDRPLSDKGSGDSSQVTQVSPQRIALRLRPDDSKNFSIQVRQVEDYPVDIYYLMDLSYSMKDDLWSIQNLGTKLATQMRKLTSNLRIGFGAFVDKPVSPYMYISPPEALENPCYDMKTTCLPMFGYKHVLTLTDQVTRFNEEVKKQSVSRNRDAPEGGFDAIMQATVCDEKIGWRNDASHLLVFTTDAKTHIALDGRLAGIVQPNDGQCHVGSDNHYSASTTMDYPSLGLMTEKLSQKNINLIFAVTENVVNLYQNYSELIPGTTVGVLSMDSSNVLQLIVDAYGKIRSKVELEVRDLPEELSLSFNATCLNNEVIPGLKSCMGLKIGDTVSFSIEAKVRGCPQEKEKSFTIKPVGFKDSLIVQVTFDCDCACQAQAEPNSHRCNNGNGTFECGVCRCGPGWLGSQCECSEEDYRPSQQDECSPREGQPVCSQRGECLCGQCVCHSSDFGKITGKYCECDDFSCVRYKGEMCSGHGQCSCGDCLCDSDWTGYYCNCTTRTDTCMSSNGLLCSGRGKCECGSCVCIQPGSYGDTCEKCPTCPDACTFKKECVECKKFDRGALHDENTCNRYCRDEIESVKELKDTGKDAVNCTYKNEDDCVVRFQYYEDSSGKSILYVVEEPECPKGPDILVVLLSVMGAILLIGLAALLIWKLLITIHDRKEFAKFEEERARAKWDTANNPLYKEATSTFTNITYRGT

Q: How did the IC50 turn out when `O=C(CCCOc1ccc(C[C@H](Nc2nc3ccc(F)cc3o2)C(=O)O)cc1)NC1=NCCCN1` [Example 13, N-(6-fluoro-2-benzoxazolyl)-O-[4-oxo-4-[(1,4,5,6-tetrahydro-2-pyrimidinyl)amino]butyl]-L-tyrosine] was run?
A: Its IC50 is 7 nM.

Q: Which IC50 does the source give for `O=C(CCCOc1ccc(C[C@H](Nc2nc3ccccc3o2)C(=O)O)cc1)NC1=NCCCN1` [Example 6, N-(2-benzoxazolyl)-O-[4-oxo-4-[(1,4,5,6-tetrahydro-2-pyrimidinyl)amino]butyl]-L-tyrosine] here?
A: Its IC50 is 5 nM.

Q: For `O=C(CCCOc1ccc(C[C@H](Nc2nc3cc(F)ccc3o2)C(=O)O)cc1)NC1=NCCCN1` [Example 14, N-(5-fluoro-2-benzoxazolyl)-O-[4-oxo-4-[(1,4,5,6-tetrahydro-2-pyrimidinyl)amino]butyl]-L-tyrosine trifluoroacetate], which IC50 is on record?
A: Its IC50 is 7 nM.

Q: For `O=C(CCCOc1ccc(C[C@H](Nc2nc3ccccc3[nH]2)C(=O)O)cc1)NC1=NCCCN1` [Example 35, N-(1H-benzimidazol-2-yl)-O-[4-oxo-4-[(1,4,5,6-tetrahydro-2-pyrimidinyl)amino]butyl]-L-tyrosine], which IC50 is on record?
A: Its IC50 is 18 nM.

Q: Which IC50 does the source give for `O=C(CCCOc1ccc(C[C@H](Nc2nc3cccc(F)c3o2)C(=O)O)cc1)NC1=NCCCN1` [Example 12, N-(7-fluoro-2-benzoxazolyl)-O-[4-oxo-4-[(1,4,5,6-tetrahydro-2-pyrimidinyl)amino]butyl]-L-tyrosine] here?
A: The IC50 was 9 nM.

From patent publication US6838453B2, “Antagonist derivatives of the vitronectin receptor” (Aventis Pharma S.A., priority 2000, dated 2005)
